{
  "source": "paper PMC7570625",
  "about": "“Design and Synthesis of a Novel NIR Celecoxib-Based Fluorescent Probe for Cyclooxygenase-2 Targeted Bioimaging in Tumor Cells” (Molecules, 2020)",
  "molecular_target": "T1, COX-2 (Homo sapiens, UniProt P35354)",
  "T1 construct": "gene PTGS2",
  "T1 sequence (P35354 18-604)": "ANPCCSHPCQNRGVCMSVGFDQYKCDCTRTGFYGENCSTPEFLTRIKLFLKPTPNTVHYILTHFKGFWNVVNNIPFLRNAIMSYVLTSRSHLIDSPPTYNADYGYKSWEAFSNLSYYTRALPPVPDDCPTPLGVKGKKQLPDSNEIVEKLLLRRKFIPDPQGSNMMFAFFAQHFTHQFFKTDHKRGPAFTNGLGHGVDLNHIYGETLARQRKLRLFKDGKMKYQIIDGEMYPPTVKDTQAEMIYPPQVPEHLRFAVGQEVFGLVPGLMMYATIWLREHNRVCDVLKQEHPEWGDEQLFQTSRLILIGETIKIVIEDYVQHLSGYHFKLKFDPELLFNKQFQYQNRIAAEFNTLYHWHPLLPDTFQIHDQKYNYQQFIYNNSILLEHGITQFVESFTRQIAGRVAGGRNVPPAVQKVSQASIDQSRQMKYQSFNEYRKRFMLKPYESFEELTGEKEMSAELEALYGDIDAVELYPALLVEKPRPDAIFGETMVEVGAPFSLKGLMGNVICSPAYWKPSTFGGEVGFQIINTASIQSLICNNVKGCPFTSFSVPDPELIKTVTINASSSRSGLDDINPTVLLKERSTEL",
  "assay": "recombinant human COX-2 inhibition, PGE2 measured by UPLC-MS/MS",
  "assay_type": "biochemical",
  "data": [
    {"smiles": "Cc1ccc(-c2cc(CNC(=O)CCCCC[N+]3=C(/C=C/C=C/C=C4/N(C)c5ccccc5C4(C)C)C(C)(C)c4ccccc43)nn2-c2ccc(S(N)(=O)=O)cc2)cc1", "note": "[CCY-5]", "values": [
      {"measurement": "IC50", "value": 1570, "unit": "nM"}
    ]}
  ]
}
